{"source": "patent US20110184178A1", "about": "“POLYMORPHS OF 5-(3-(ETHYLSULFONYL)PHENYL)-3,8-DIMETHYL-N-(1-METHYLPIPERIDIN-4-YL)-9H-PYRIDO[2,3-B]INDOLE-7-CARBOXAMIDE AND METHODS OF USE THEREFOR” (Takeda Pharmaceutical Company Limited, priority 2008, published 2011)", "format_in_all_cases": "physicochemical", "key": {"[1]": {"assay": "Humidity chamber study of Form A (XRPD, Karl Fischer)", "conditions": "ambient temperature and 0% RH for one week", "from_the_text": "A sample of Form A was exposed to ambient temperature and 0% RH for one week."}, "[2]": {"assay": "Solubility study of Form A in de-ionized water and 20 mM phosphate buffer at pH 3.2 (HPLC, XRPD of solids)", "conditions": "for solubility at 1 week: ambient temperature, read-out: Solubility mg/mL (1 week); for solubility at 1 day: read-out: Solubility mg/mL (1 day)", "experimental": "Solubility was determined for Form A of Compound I by suspending the material in de-ionized water and 20 mM phosphate buffer at pH 3.2 and ambient temperature. Approximately 40 mg of Form A of Compound I was charged to 2-dram amber vials equipped with magnetic stir bars, followed by the addition of DI water or phosphate buffer (2.0 mL) in one portion. The samples were allowed to equilibrate with stirring for 16 h, followed by centrifugation. An aliquot of the supernatant liquid was analyzed by HPLC, and the solids isolated by filtration and dried under vacuum at ambient temperature for analysis by XRPD. Samples were allowed to stir for an additional 6 days and concentration determined by HPLC."}, "[3]": {"assay": "DSC heat-cool experiments with isothermal holds to isolate high-melt forms", "experimental": "Differential scanning calorimetry (DSC) analyses were carried out on samples weighed in an aluminum pan, covered with a pierced lid, and then crimped. Analysis conditions were 30° C. to 300-350° C. ramped at 10° C./min. Samples were subjected to heat-cool-heat experiments to determine if a unique form or interconversion could be observed. Compound I was prepared by thoroughly mixing Form A lots with stirring by spatula and tumbling the powders for several minutes in a scintillation vial. Experiments were setup as described in Tables 17 and 18 with isothermal holds for five minutes at temperatures slightly below/above the observed transitions to encourage conversion/ripening. Similarly, controlled cooling profiles (−5° C./min) were used to help promote crystal growth as opposed to quench cooling which may result in amorphous or kinetically favored forms instead of the stable form."}, "[4]": {"assay": "Moisture-sorption analysis (gravimetric adsorption/desorption, 25° C.)", "experimental": "Further, the material gained enough water to form the dihydrate in approximately 45 minutes at 30% RH during adsorption and lost enough water to form the anhydrate at 15% RH during desorption in less than 60 minutes. […] The sample was further allowed to equilibrate at ambient laboratory conditions overnight and reanalyzed by XRPD. […] The moisture sorption experiment of Form C of Compound I provides a curve similar to the Form A curve (FIG. 11). […] Further, the material gained enough water to form the dihydrate in less than 60 minutes at 30% RH during adsorption and lost enough water to form the anhydrate at 15% RH during desorption in approximately 80 minutes. […] Moisture-sorption experiments were carried out on all samples by first drying the sample at 0% RH and 25° C. until an equilibrium weight was reached or for a maximum of four hours. The sample was then subjected to an isothermal (25° C.) adsorption scan from 10 to 90% RH in steps of 10%. Samples were then allowed to equilibrate to an asymptotic weight at each point for a maximum of four hours. Following adsorption, a desorption scan from 85 to 0% RH (at 25° C.) was run in steps of −10% again allowing a maximum of four hours for equilibration to an asymptotic weight. Samples were dried for one hour at 80° C. and the resulting solids analyzed by XRPD."}, "[5]": {"assay": "Physical characterization of the polymorphs and salt (XRPD, DSC, TGA, 1H-NMR, KF, moisture sorption): stability assessment", "conditions": "solid form", "experimental": "Described herein are Form A, Form B, Form C, Form D, Form E, Form F and Form G of Compound I. Various tests were performed in order to physically characterize the polymorphs of Compound I, including X-ray powder diffraction (XRPD), differential scanning calorimetry (DSC), thermogravimetric analysis (TGA), solution proton nuclear magnetic resonance (^1H-NMR), and moisture sorption and desorption analysis (M S/Des). Detailed experimental conditions for each of the analytical techniques are described in the Examples section. […] A summary of these experiments and the results are presented below and in Table 12."}, "[6]": {"assay": "Slurry experiments (form by XRPD after slurrying in a solvent)", "conditions": "Form A in dioxane slurry", "experimental": "50 to 60 mg of Form A of Compound I was weighed out into 2 dram amber vials and the material was slurried in 2 mL of a solvent. The slurry experiments were carried out at either ambient temperature or at 40° C. Samples were obtained from slurries after one day, one week, and two weeks. Tables 15 and 16 detail the results of the slurry experiments."}, "[7]": {"conditions": "solids isolated from DI water suspension"}, "[8]": {"conditions": "solids isolated from phosphate buffer suspension, pH 3.2"}, "[9]": {"conditions": "30-280° C. @ 10° C./min, hold 280° C. for 5 min, 280-30° C. @ -5° C./min"}, "[10]": {"conditions": "30-290° C. @ 10° C./min, hold 290° C. for 5 min, 290-30° C. @ -5° C./min"}}, "note": "Read-outs that look alike come from different tables or passages of the source."}
{"smiles": "CCS(=O)(=O)c1cccc(-c2cc(C(=O)NC3CCN(C)CC3)c(C)c3[nH]c4ncc(C)cc4c23)c1", "note": "[Compound I Form A, 5-(3-(ethylsulfonyl)phenyl)-3,8-dimethyl-N-(1-methylpiperidin-4-yl)-9H-pyrido[2,3-b]indole-7-carboxamide]", "values": [{"measurement": "Karl Fischer (KF) analysis results before and after the one week equilibration", "setting": "[1]", "value": "comparable"}, {"measurement": "XRPD after one week in humidity chamber", "setting": "[1]", "value": "consistent with Form A"}, {"measurement": "pH, 1 week", "setting": "[2]; DI water suspension, pH (initial) 6.9", "value": 7.2}, {"measurement": "pH, 1 week", "setting": "[2]; Phosphate buffer suspension, pH (initial) 3.2", "value": 3.4}, {"measurement": "solubility at 1 week", "setting": "[2]; aqueous buffer, thermodynamic from solid, Phosphate buffer (20 mM), pH (initial) 3.2, pH 3.4 at 1 week", "value": "< 0.1", "unit": "mg/mL"}, {"measurement": "solubility at 1 day", "setting": "[2]; de-ionized water, pH 6.9, thermodynamic from solid, DI water, pH (initial) 6.9, ambient temperature", "value": "< 0.1", "unit": "mg/mL"}, {"measurement": "solubility at 1 week", "setting": "[2]; de-ionized water, thermodynamic from solid, DI water, pH (initial) 6.9, pH 7.2 at 1 week", "value": "< 0.1", "unit": "mg/mL"}, {"measurement": "solubility at 1 day", "setting": "[2]; pH 3.2, aqueous buffer, thermodynamic from solid, Phosphate buffer (20 mM), pH (initial) 3.2, ambient temperature", "value": "< 0.1", "unit": "mg/mL"}, {"measurement": "XRPD (1 week)", "setting": "[2]; [7]", "value": "Form A"}, {"measurement": "XRPD (1 day)", "setting": "[2]; [7]", "value": "Form A"}, {"measurement": "XRPD (1 week)", "setting": "[2]; [8]", "value": "Form A"}, {"measurement": "XRPD (1 day)", "setting": "[2]; [8]", "value": "Form A"}, {"measurement": "1H NMR (degradation)", "setting": "[3]; [9]", "value": "No degradation"}, {"measurement": "XRPD", "setting": "[3]; [9]", "value": "Form F"}, {"measurement": "1H NMR (degradation)", "setting": "[3]; [10]", "value": "No degradation"}, {"measurement": "XRPD", "setting": "[3]; [10]", "value": "Form G"}, {"measurement": "XRPD analysis of the solid following the desorption scan", "setting": "[4]", "value": "consistent with Form C"}, {"measurement": "time to lose enough water to form the anhydrate", "setting": "[4]; at 15% RH during desorption", "value": "less than 60 minutes"}, {"measurement": "time to gain enough water to form the dihydrate", "setting": "[4]; at 30% RH during adsorption", "value": "approximately 45 minutes"}, {"measurement": "hydration state in the moisture sorption experiment", "setting": "[4]; during both adsorption and desorption, 25° C.", "value": "stable dihydrate above 20% RH"}, {"measurement": "XRPD after equilibration at ambient laboratory conditions overnight", "setting": "[4]; sample after desorption scan", "value": "re-converted to Form A"}, {"measurement": "stability (based on the available characterization data)", "setting": "[5]", "value": "stable at ambient conditions"}, {"measurement": "XRPD pattern of dioxane slurry", "setting": "[6]", "value": "mixture of Form A and Form D"}]}
